# In article PMC6349869, “The palladacycle complex AJ-5 induces apoptotic cell death while reducing autophagic flux in rhabdomyosarcoma cells” (Cell Death Discovery, 2019):
# How the values were obtained:
# [1] = system: FL-OH-1 cells; assay: MTT cell viability assay, FL-OH-1; assay type: cell-based, human; conditions: FL-OH-1 (eRMS), 48 h
# Description: (§1) RH30 human aRMS cells (kindly provided by Associate Professor Judith Davie, Southern Illinois University), AX-OH-1 human aRMS and FL-OH-1 human eRMS cells (kindly provided by Professor Stefan Bath, University of Cape Town) were cultured in Roswell Park Memorial Institute Medium (RPMI)-1640 (Sigma Aldrich, Missouri, USA). […] Cell morphology was monitored using an Olympus CKX41 inverted microscope (MSAC Ltd, UK) and imaged with an EVOS™ XL AMEX1000 Core Imaging System (Thermo Fisher Scientific, Massachusetts, USA).
# (§2) Cells were seeded in 96-well plates and treated the next day with a range of AJ-5 concentrations (0.1–1.0 μM) or vehicle ([…]) for 48 h. Cell viability was measured using the 3-(4,5-dimethylthiazol-2-yl)-2,5-diphenyl-trazolium bromide (MTT) assay (11465007001; Sigma Aldrich) according to the manufacturer’s instructions. Mean cell viability was calculated as a percentage of the mean vehicle control. At least three independent experiments in quadruplicate were performed from which the half maximal inhibitory concentration (IC50) was determined using GraphPad Prism version 6.0 (GraphPad Software, California, USA). The selectivity index (SI) was determined by dividing the IC50 of a normal cell line by the IC50 of a cancer cell line.
# [2] = system: SW1353 cells; assay: MTT cell viability assay, SW1353 chondrosarcoma; assay type: cell-based, human; conditions: 48 h
# Description: as §1, §2
# [3] = system: C2C12 cells; assay: Clonogenic assay, C2C12 myoblasts; assay type: cell-based, mouse; conditions: 24 h of 0.3 µM
# Description: Cells were seeded in 6-well plates and treated the following day with IC50, ½ IC50, ¼ IC50 AJ-5 and vehicle. After 24 h, 800–4000 cells were seeded in 35 mm dishes in drug-free medium. Formation of colonies were monitored and after 7–21 days cells were fixed with 3:1 methanol:acetic acid and stained with 0.5% crystal violet (Sigma Aldrich) in 100% methanol. Colonies were imaged and percentage colony area was determined using ImageJ v1.50i[58] and the plugin ColonyArea[59]. Colony area was determined for each drug concentration and expressed as a percentage of vehicletreated control.
# [4] = system: RH30 cells; assay: Autophagic flux by western blotting (p62; LC3II with bafilomycin A1), RH30; assay type: cell-based, human
# Description: (§3) AJ-5, synthesized as previously described, was dissolved in dimethyl sulfoxide (DMSO) (D8418; Sigma Aldrich) to give a 5 mM AJ-5 stock which was stored at room temperature (RT) and used within 5 days. AJ-5 was diluted in cell culture medium to achieve the desired final concentration and a vehicle control (DMSO) of the same concentration was prepared simultaneously. Cells were treated at a confluency of 60%. For western blot experiments to determine autophagy flux, cells were treated with 200 nM bafilomycin A1 (B1793; Sigma Aldrich) for 2 h post AJ-5 treatment. Doxorubicin (z/26/0167; Teva Pharmaceutical Industries Ltd, Israel) was used as a positive control in Caspase-Glo experiments at a concentration of 0.5 µM.
# (§4) Cells were lysed at 4 °C in whole-cell lysis buffer (0.125 M Tris-HCl pH 6.8, 4% SDS, 0.2% glycerol, 0.1% β-mercaptoethanol and a pinch of bromophenol blue) and boiled for 10 min. Proteins were resolved by SDS-PAGE (6–15% gels) and transferred to Hybond ECL membranes (Amersham, UK). […] Densitometry readings were obtained using ImageJ v1.50i[58] and protein expression levels were represented as a ratio of protein of interest/p38 loading control normalized to the vehicletreated control sample where appropriate. […]
# [5] = system: RD cells; assay: Autophagic flux by western blotting (p62; LC3II with bafilomycin A1), RD; assay type: cell-based, human
# Description: as §3, §4
smiles,measurement,setting,value
CC(C)c1cccc(C(C)C)c1[N+]1=Cc2cccc[c]2[Pd-2]1([Cl])[P+](CC[P+](c1ccccc1)(c1ccccc1)[Pd-2]1([Cl])[c]2ccccc2C=[N+]1c1c(C(C)C)cccc1C(C)C)(c1ccccc1)c1ccccc1 (stereo not shown) [AJ-5],IC50,[1],≤ 200 nM
same,IC50,[2],< 300 nM
same,Ability of C2C12 myoblasts to survive and proliferate (colony area),[3],not significantly hindered
same,Autophagic flux judged by p62 levels,"[4]; RH30, 0.1 µM or IC50, 24 and 48 h",appears to reduce autophagic flux
same,LC3II in the presence of bafilomycin A1,"[4]; RH30, IC50 24 h then 200 nM bafilomycin A1 2 h",decreased levels of LC3II
same,Autophagic flux judged by p62 levels,"[5]; 0.1 µM or IC50, 24 and 48 h",increases autophagic flux
same,"LC3II in the presence of bafilomycin A1, compared with vehicle",[5]; IC50 24 h then 200 nM bafilomycin A1 2 h,negligible change in LC3II
